Source: patent US20240123078A1, “COMPOUNDS AND METHODS FOR MODULATING IMMUNE-RELATED PROTEINS” (Vividion Therapeutics, Inc., priority 2019, published 2024)

Key:
Assay in all cases: Cysteine reactivity ABPP
Type in all cases: binding
Settings in all cases: 100
[1] = biological target: T1, MAPK9 Mitogen-activated protein kinase 9 C177 (P45984) (Homo sapiens, UniProt P45984)
T1 construct: endogenous in cells; host or cells: primary human T cells

[2] = biological target: T2, PFKFB3 6-phosphofructo-2-kinase/fructose-2,6-bisphosphatase 3 C440 (Q16875) (Homo sapiens, UniProt Q16875)
T2 construct: endogenous in cells; host or cells: primary human T cells
T2 sequence (Q16875 whole entry, one chain of several): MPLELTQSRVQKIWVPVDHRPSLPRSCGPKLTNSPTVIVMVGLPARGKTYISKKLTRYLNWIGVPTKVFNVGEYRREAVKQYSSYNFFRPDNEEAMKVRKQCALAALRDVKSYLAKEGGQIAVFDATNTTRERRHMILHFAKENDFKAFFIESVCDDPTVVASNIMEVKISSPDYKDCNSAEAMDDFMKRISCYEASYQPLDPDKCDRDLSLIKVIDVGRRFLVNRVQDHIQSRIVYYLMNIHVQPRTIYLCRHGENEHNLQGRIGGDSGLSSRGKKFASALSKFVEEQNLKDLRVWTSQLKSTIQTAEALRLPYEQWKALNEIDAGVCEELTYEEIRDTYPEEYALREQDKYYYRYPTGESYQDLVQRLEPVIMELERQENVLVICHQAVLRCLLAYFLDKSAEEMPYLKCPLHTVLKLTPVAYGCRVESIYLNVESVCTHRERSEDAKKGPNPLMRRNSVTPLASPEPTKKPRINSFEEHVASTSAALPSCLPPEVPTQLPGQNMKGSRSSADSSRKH

[3] = biological target: T3, UBASH3A Ubiquitin-associated and SH3 domain-containing protein A C435 (P57075) (Homo sapiens, UniProt P57075)
T3 construct: endogenous in cells; host or cells: primary human T cells
T3 sequence (P57075 1-661): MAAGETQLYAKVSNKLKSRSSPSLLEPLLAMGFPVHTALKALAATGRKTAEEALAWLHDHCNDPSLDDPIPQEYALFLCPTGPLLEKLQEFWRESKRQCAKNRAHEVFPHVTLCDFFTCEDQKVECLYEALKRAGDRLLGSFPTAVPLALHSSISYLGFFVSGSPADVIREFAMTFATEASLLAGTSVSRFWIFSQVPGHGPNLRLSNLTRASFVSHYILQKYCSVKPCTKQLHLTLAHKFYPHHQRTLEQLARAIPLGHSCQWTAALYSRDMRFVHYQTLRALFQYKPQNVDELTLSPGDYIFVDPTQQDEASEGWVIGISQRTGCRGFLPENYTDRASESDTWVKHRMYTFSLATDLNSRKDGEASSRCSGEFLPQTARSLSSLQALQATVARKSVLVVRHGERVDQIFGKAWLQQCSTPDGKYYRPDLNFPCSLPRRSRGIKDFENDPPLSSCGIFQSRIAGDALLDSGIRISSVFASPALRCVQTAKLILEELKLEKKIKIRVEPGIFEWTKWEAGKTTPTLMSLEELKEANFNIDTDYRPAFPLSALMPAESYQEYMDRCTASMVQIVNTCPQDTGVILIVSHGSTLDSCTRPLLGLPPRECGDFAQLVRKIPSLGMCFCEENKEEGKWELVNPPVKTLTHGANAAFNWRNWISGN

T1 sequence (P45984 whole entry): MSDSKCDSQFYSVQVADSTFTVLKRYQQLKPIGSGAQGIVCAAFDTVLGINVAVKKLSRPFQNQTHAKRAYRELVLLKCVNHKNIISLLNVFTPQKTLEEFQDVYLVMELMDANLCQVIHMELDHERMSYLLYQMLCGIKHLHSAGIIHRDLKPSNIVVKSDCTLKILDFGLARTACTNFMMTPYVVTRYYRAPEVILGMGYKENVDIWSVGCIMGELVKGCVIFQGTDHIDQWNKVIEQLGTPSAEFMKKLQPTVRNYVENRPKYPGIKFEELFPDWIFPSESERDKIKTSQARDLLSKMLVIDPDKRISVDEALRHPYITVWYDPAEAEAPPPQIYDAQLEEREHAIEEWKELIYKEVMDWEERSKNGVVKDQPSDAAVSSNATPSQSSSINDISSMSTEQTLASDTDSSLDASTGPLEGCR

## O=C(CCl)N1CCN(S(=O)(=O)c2ccc(-c3ccncc3)cc2)CC1 [Compound B9]
[1]
  Cysteine reactivity proteomic data: 72.19
[2]
  Cysteine reactivity proteomic data: 62.11
[3]
  Cysteine reactivity proteomic data: 78.65
